Laboratory results reported in PMC6152192, “Novel Methylselenoesters as Antiproliferative Agents” (Molecules : A Journal of Synthetic Chemistry and Natural …, 2017).
Values joined by “and” are separate entries in the source; they are usually repeats but may differ in a detail not shown here. Equal values may be shown once.

Assays:
[1] = Methylselenol (CH3SeH) release by hydrolysis, quantified with DTNB (Ellman's reagent); format: physicochemical; conditions: 100 μM compound, 100 μM DTNB
Excerpt: The new compounds were designed as CH3SeH precursors. The chemical features of the selenoester functional group facilitate a nucleophilic attack (i.e., with water) which would deliver the CH3SeH residue. In order to verify if CH3SeH could be released from the molecules by hydrolysis and if the rate differed among the compounds, the reaction of CH3SeH with 5,5′-dithiobis(2-nitrobenzoic acid) (DTNB or Ellman’s reagent) in aqueous environment was monitored. Briefly, when the disulfide bridge of DTNB reacts with thiols or selenols, 2-nitro-5-thiobenzoate (TNB^2−) is released and the mixed disulfide or selenylsulfide is formed. Each released CH3SeH produces one yellow TNB^2− species, whose absorbance can be quantified at 412 nm (Figure 2A).
A stock solution of the compounds was prepared in anhydrous DMSO (10 mM). The compounds were placed in a 96-well plate in a final concentration of 100 μM. Reaction started after adding 200 μL of an aqueous 100 mM Na2HPO4 buffer (1 mM EDTA, pH = 8), containing 100 μM of DTNB from a freshly prepared 10 mM ethanolic stock, which were added just before starting the reaction. The DTNB concentration was quantified with a cysteine standard curve ([…]). Blanks for the compounds in the absence of DTNB were also included as well as a blank to measure the slow but spontaneous hydrolysis of DTNB, which was further subtracted from all the values. Absorbance was read at 412 nm in a FLUOstar Omega microplate reader (BMG LabTech, Ortenberg, Germany). Results represent means of triplicate values ± SD.
Figure 2 CH3SeH release rates are dependent on the chemical features of the molecule. Released CH3SeH was quantified through reaction with Ellman’s reagent (DTNB). (A) Proposed reaction between CH3SeH and DTNB; (B) Quantification of TNB^2− at different times. The compounds were tested at 100 μM in 200 μL of 100 mM phosphate buffer (1 mM EDTA, pH = 8). DTNB concentration was also 100 μM. Absorbance was followed at 412 nm over 72 h. A cysteine standard curve (7.5–150 μM) was used to calculate the concentration of TNB^2− over time. Compounds showing less than 15% hydrolysis at 72 h are not included, except for compound 5 as example. Error bars indicate SD of triplicates.

[2] = system: PC-3 (prostate adenocarcinoma); assay: MTT viability assay, PC-3; format: cell-based; conditions: PC-3, 72 h, MTT; for CC50: read-out: LC50 (the source's name)
How it was run: (§1)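 Cells (10,000/well; RPMI or, for BEAS-2B, DMEM with 10% FBS; 37 °C, 5% CO2) were treated 72 h with six concentrations from 0.1 to 100 μM, diluted from 0.01 M DMSO stock. MTT was added for 4 h, formazan dissolved in DMSO, absorbance read at 550 nm; GI50, TGI and LC50 derived.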

[3] = system: 184B5 (non-malignant mammary epithelium); assay: MTT viability assay, 184B5; format: cell-based; conditions: 184B5 non-malignant, 72 h, MTT; for CC50: read-out: LC50 (the source's name)
[4] = system: HTB-54 (lung carcinoma); assay: MTT viability assay, HTB-54; format: cell-based; conditions: HTB-54, 72 h, MTT; for CC50: read-out: LC50 (the source's name)
How it was run: as §1

[5] = system: thioredoxin reductase (TrxR1); assay: Thioredoxin reductase activity assay (NADPH consumption); format: biochemical; conditions: 100 nM TrxR1, 227 μM NADPH, TE buffer pH 8, 45 min
Method: The assay was performed as previously described, but in a final volume of 200 μL in a 96-well plate. Reaction started after addition of 133 μL of TE buffer (20 mM Tris, 2 mM EDTA, pH = 8), 0.227 mM NADPH (freshly prepared) to different concentrations of compounds solved in DMSO and TrxR1 (final concentration 100 nM). NADPH consumption was followed measuring absorbance decrease at 340 nm in a VersaMax microplate reader (Molecular Devices, Sunnyvale, CA, USA) over 45 min. A background sample with DMSO without the compounds was included and subtracted from the values.
Figure 7 Compounds 5 and 15 are substrates for thioredoxin reductase but not for the glutathione-glutaredoxin system. (A) NADPH consumption indicating reduction of compounds 5, 15 or MSA as control by thioredoxin reductase. The reaction mixture contained 100 nM TrxR1, 227 μM NADPH and the corresponding amount of compound in TE buffer (20 mM Tris, 2 mM EDTA pH = 8); (B) NADPH consumption indicating reduction of MSA by glutathione in the presence or absence of glutaredoxin. The reaction mixture contained the corresponding amount of compound, 0.1 M Tris, 2 mM EDTA pH = 8, 0.1 mg/mL BSA, 1 mM GSH, 200 μM NADPH, 0.008 OD/mL yeast GR and 1 μM hGrx1 when required. Only results for MSA are shown, as compounds 5 and 15 were not reduced.

Row | Substance | CH3SeH release / hydrolysis rate ([1]; 100 mM phosphate buffer, 1 mM EDTA, pH 8, followed over 72 h) | GI50 [2] | CC50 [2] | GI50 [3] | TGI [3] | CC50 [3] | GI50 [4] | TGI [4] | CC50 [4] | reduction by TrxR1 (NADPH consumption) [5] | hydrolysis at 72 h ([1]; phosphate buffer pH 8, 72 h) | TGI [2]
1 | Dimethyl 2,5-furandicarboselenoate [Compound 15] | more sustained release | 4.8 ± 0.8 µM | 47.8 ± 4.4 µM | 3.5 ± 1.1 µM | 6.4 ± 0.5 µM | 9.2 ± 0.9 µM | > 10 µM and 15.6 µM | 46.0 ± 3.0 µM | 76.3 ± 1.1 µM | substrates only for TrxR1 |  | 
2 | Methyl 3-chlorothiophen-2-carboselenoate [Compound 5] |  | 8.6 ± 1.7 µM | 91.6 ± 3.9 µM | 3.5 ± 0.4 µM | 5.9 ± 0.3 µM | 8.3 ± 0.2 µM | 4.9 ± 0.2 µM |  | 61.5 ± 3.2 µM | substrates only for TrxR1 | less than 15% | 47.7 ± 2.9 µM
